According to US9149038B2, “4-amino-6-(heterocyclic)picolinates and 6-amino-2-(heterocyclic)pyrimidine-4-carboxylates and their use as herbicides” (Dow AgroSciences LLC, priority 2013, dated 2015):
Read-outs that look alike come from different tables or passages of the source.

Tests used:
[1] = tested on: Key Grass and Sedge Weeds as well as Grass Crops; assay: Post-Emergent Test II: postemergent herbicidal activity, visual rating after 14 d (Table 8); type: in vivo; details: post-emergence, 336 h; for pest or weed control at 35 g/ha: 35 g ai/ha; for pest or weed control at 70 g/ha: 70 g ai/ha; for pest or weed control at 140 g/ha: 140 g ai/ha
Text: (§1) Herbicidal evaluations were made visually on a scale of 0 to 100 where 0 represents no activity and 100 represents complete plant death.
(§2) Seeds or nutlets of the desired test plant species were planted in Sun Gro Metro-Mix® 360 planting mixture, which typically has a pH of 6.0 to 6.8 and an organic matter content of about 30 percent, in plastic pots with a surface area of 64 square centimeters (cm^2). When required to ensure good germination and healthy plants, a fungicide treatment and/or other chemical or physical treatment was applied. The plants were grown for 7-21 d in a greenhouse with an approximate 15 h photoperiod which was maintained at about 23-29° C. during the day and 22-28° C. during the night. Nutrients and water were added on a regular basis and supplemental lighting was provided with overhead metal halide 1000-Watt lamps as necessary. The plants were employed for testing when they reached the first or second true leaf stage.
(§3) A weighed amount, determined by the highest rate to be tested, of each test compound was placed in a 25 mL glass vial and was dissolved in 4 mL of a 97:3 v/v mixture of acetone and DMSO to obtain concentrated stock solutions. […] The concentrated stock solutions obtained were diluted with 20 mL of an aqueous mixture containing acetone, water, isopropyl alcohol, DMSO, Atplus 411F crop oil concentrate, and Triton® X-155 surfactant in a 48.5:39:10:1.5:1.0:0.02 v/v ratio to obtain spray solutions containing the highest application rates. Additional application rates were obtained by serial dilution of 12 mL of the high rate solution into a solution containing 2 mL of a 97:3 v/v mixture of acetone and DMSO and 10 mL of an aqueous mixture containing acetone, water, isopropyl alcohol, DMSO, Atplus 411F crop oil concentrate, and Triton X-155 surfactant in a 48.5:39:10:1.5:1.0:0.02 v/v ratio to obtain ½×, ¼×, ⅛× and 1/16× rates of the high rate. Compound requirements are based upon a 12 mL application volume at a rate of 187 liters per hectare (L/ha). Formulated compounds were applied to the plant material with an overhead Mandel track sprayer equipped with 8002E nozzles calibrated to deliver 187 L/ha over an application area of 0.503 square meters at a spray height of 18 inches (43 cm) above the average plant canopy height. Control plants were sprayed in the same manner with the solvent blank.
(§4) The treated plants and control plants were placed in a greenhouse as described above and watered by subirrigation to prevent wash-off of the test compounds. After 14 d, the condition of the test plants as compared with that of the untreated plants was determined visually and scored on a scale of 0 to 100 percent where 0 corresponds to no injury and 100 corresponds to complete kill and are presented as indicated in Table 4.

[2] = tested on: Key Broadleaf Weed and Crop Species; assay: Post-Emergent Test II: postemergent herbicidal activity, visual rating after 14 d (Table 7); type: in vivo; details: post-emergence, 336 h; for pest or weed control at 35 g/ha: 35 g ai/ha; for pest or weed control at 70 g/ha: 70 g ai/ha; for pest or weed control at 140 g/ha: 140 g ai/ha
Text: as §1, §2, §3, §4

[3] = giant foxtail (Setaria faberi), read-out: Visual Growth Reduction (%) 14 Days After Application SETFA
[4] = maize, corn (Zea mays), read-out: Visual Growth Reduction (%) 14 Days After Application ZEAMX
[5] = rice (Oryza sativa), read-out: Visual Growth Reduction (%) 14 Days After Application ORYSA
[6] = wheat, spring (Triticum aestivum), read-out: Visual Growth Reduction (%) 14 Days After Application TRZAS
[7] = yellow nutsedge (Cyperus esculentus), read-out: Visual Growth Reduction (%) 14 Days After Application CYPES
[8] = lambsquarters (Chenopodium album), read-out: Visual Growth Reduction (%) 14 Days After Application CHEAL
[9] = oilseed rape, canola (Brassica napus), read-out: Visual Growth Reduction (%) 14 Days After Application BRSNN
[10] = redroot pigweed (Amaranthus retroflexus), read-out: Visual Growth Reduction (%) 14 Days After Application AMARE
[11] = sunflower (Helianthus annuus), read-out: Visual Growth Reduction (%) 14 Days After Application HELAN
[12] = velvetleaf (Abutilon theophrasti), read-out: Visual Growth Reduction (%) 14 Days After Application ABUTH
[13] = wild poinsettia (Euphorbia heterophylla), read-out: Visual Growth Reduction (%) 14 Days After Application EPHHL

Which results are given for `COC(=O)c1nc(-c2ccc3c(c2Cl)OC(F)(F)O3)cc(N)c1Cl` [Compound 33]?
pest or weed control at 35 g/ha [1, 3]: 0 to 29%; pest or weed control at 70 g/ha [1, 3]: 0 to 29%; pest or weed control at 140 g/ha [1, 3]: 45 to 59%; pest or weed control at 35 g/ha [1, 4]: 60 to 74%; pest or weed control at 70 g/ha [1, 4]: 60 to 74%; pest or weed control at 140 g/ha [1, 4]: 75 to 84%; pest or weed control at 35 g/ha [1, 5]: 0 to 29%; pest or weed control at 70 g/ha [1, 5]: 0 to 29%; pest or weed control at 140 g/ha [1, 5]: 0 to 29%; pest or weed control at 35 g/ha [1, 6]: 0 to 29%; pest or weed control at 70 g/ha [1, 6]: 0 to 29%; pest or weed control at 140 g/ha [1, 6]: 0 to 29%; pest or weed control at 35 g/ha [1, 7]: 95 to 100%; pest or weed control at 140 g/ha [1, 7]: 95 to 100%; pest or weed control at 35 g/ha [2, 8]: 75 to 84%; pest or weed control at 70 g/ha [2, 8]: 75 to 84%; pest or weed control at 140 g/ha [2, 8]: 75 to 84%; pest or weed control at 35 g/ha [2, 9]: 60 to 74%; pest or weed control at 70 g/ha [2, 9]: 60 to 74%; pest or weed control at 140 g/ha [2, 9]: 60 to 74%; pest or weed control at 35 g/ha [2, 10]: 60 to 74%; pest or weed control at 70 g/ha [2, 10]: 75 to 84%; pest or weed control at 140 g/ha [2, 10]: 95 to 100%; pest or weed control at 35 g/ha [2, 11]: 75 to 84%; pest or weed control at 70 g/ha [2, 11]: 85 to 94%; pest or weed control at 140 g/ha [2, 11]: 85 to 94%; pest or weed control at 35 g/ha [2, 12]: 60 to 74%; pest or weed control at 70 g/ha [2, 12]: 75 to 84%; pest or weed control at 140 g/ha [2, 12]: 75 to 84%; pest or weed control at 35 g/ha [2, 13]: 0 to 29%; pest or weed control at 70 g/ha [2, 13]: 60 to 74%; pest or weed control at 140 g/ha [2, 13]: 60 to 74%

With `Nc1cc(-c2ccc3c(c2Cl)OC(F)(F)O3)nc(C(=O)O)c1Cl` [Compound 34] as the molecule, how does the pest or weed control at 35 g/ha [1, 3] read?
The pest or weed control at 35 g/ha was 75 to 84%.

What about the pest or weed control at 70 g/ha [1, 3] of the same molecule?
Its pest or weed control at 70 g/ha is 75 to 84%.

And the pest or weed control at 140 g/ha [1, 3]?
Its pest or weed control at 140 g/ha is 75 to 84%.

And the pest or weed control at 35 g/ha [1, 4]?
Its pest or weed control at 35 g/ha is 60 to 74%.

And the pest or weed control at 70 g/ha [1, 4]?
The pest or weed control at 70 g/ha was 60 to 74%.

And the pest or weed control at 140 g/ha [1, 4]?
Its pest or weed control at 140 g/ha is 60 to 74%.

What about the pest or weed control at 35 g/ha [1, 5] of the same molecule?
Its pest or weed control at 35 g/ha is 0 to 29%.

What about the pest or weed control at 70 g/ha [1, 5] of the same molecule?
Its pest or weed control at 70 g/ha is 0 to 29%.

What about the pest or weed control at 140 g/ha [1, 5] of the same molecule?
The pest or weed control at 140 g/ha was 0 to 29%.

And the pest or weed control at 35 g/ha [1, 6]?
Its pest or weed control at 35 g/ha is 45 to 59%.

And the pest or weed control at 70 g/ha [1, 6]?
Its pest or weed control at 70 g/ha is 60 to 74%.

And the pest or weed control at 140 g/ha [1, 6]?
The pest or weed control at 140 g/ha was 60 to 74%.

What about the pest or weed control at 35 g/ha [1, 7] of the same molecule?
The pest or weed control at 35 g/ha was 0 to 29%.

And the pest or weed control at 70 g/ha [1, 7]?
Its pest or weed control at 70 g/ha is 0 to 29%.

And the pest or weed control at 140 g/ha [1, 7]?
Its pest or weed control at 140 g/ha is 0 to 29%.

What about the pest or weed control at 35 g/ha [2, 8] of the same molecule?
Its pest or weed control at 35 g/ha is 75 to 84%.

And the pest or weed control at 70 g/ha [2, 8]?
The pest or weed control at 70 g/ha was 75 to 84%.

And the pest or weed control at 140 g/ha [2, 8]?
The pest or weed control at 140 g/ha was 75 to 84%.

And the pest or weed control at 35 g/ha [2, 9]?
Its pest or weed control at 35 g/ha is 75 to 84%.

What about the pest or weed control at 70 g/ha [2, 9] of the same molecule?
Its pest or weed control at 70 g/ha is 75 to 84%.

What about the pest or weed control at 140 g/ha [2, 9] of the same molecule?
Its pest or weed control at 140 g/ha is 85 to 94%.

And the pest or weed control at 35 g/ha [2, 10]?
Its pest or weed control at 35 g/ha is 85 to 94%.

What about the pest or weed control at 70 g/ha [2, 10] of the same molecule?
Its pest or weed control at 70 g/ha is 95 to 100%.

What about the pest or weed control at 140 g/ha [2, 10] of the same molecule?
Its pest or weed control at 140 g/ha is 95 to 100%.

What about the pest or weed control at 35 g/ha [2, 11] of the same molecule?
Its pest or weed control at 35 g/ha is 75 to 84%.

And the pest or weed control at 70 g/ha [2, 11]?
Its pest or weed control at 70 g/ha is 85 to 94%.

And the pest or weed control at 140 g/ha [2, 11]?
Its pest or weed control at 140 g/ha is 85 to 94%.

And the pest or weed control at 35 g/ha [2, 12]?
The pest or weed control at 35 g/ha was 45 to 59%.

What about the pest or weed control at 70 g/ha [2, 12] of the same molecule?
Its pest or weed control at 70 g/ha is 60 to 74%.

And the pest or weed control at 140 g/ha [2, 12]?
Its pest or weed control at 140 g/ha is 75 to 84%.

And the pest or weed control at 35 g/ha [2, 13]?
The pest or weed control at 35 g/ha was 45 to 59%.

And the pest or weed control at 70 g/ha [2, 13]?
Its pest or weed control at 70 g/ha is 60 to 74%.

And the pest or weed control at 140 g/ha [2, 13]?
Its pest or weed control at 140 g/ha is 60 to 74%.
